According to ChEMBL document CHEMBL1128987, “Benzenesulfonamide-peptide conjugates as probes for secondary binding sites near the active site of carbonic anhydrase” (Bioorg Med Chem Lett, 1996):
Values joined by “and” are separate entries in the source; they are usually repeats but may differ in a detail not shown here. Equal values may be shown once. Where a SMILES comes first, the peptide text is derived from it. [ ]: non-standard residue; d: D form. The star is where a group is joined. Benzoyl(4-SO2NH2) = NS(=O)(=O)c1ccc(C(=O)*)cc1; Phe(4-Cl) = N[C@@H](Cc1ccc(Cl)cc1)C(=O)O; Nle = CCCC[C@H](N)C(=O)O

Key:
Carbonic anhydrase 2 [1] = target: T1, Carbonic anhydrase 2 (Homo sapiens, UniProt P00918)
Description: Kinetic constant for binding human carbonic anhydrase II (Kon=Kd x Koff)

Carbonic anhydrase 2 [2] = target: T1, Carbonic anhydrase 2; remark: listed apart in the source
Description: Kinetic constant for binding human carbonic anhydrase II

Carbonic anhydrase 2 [3] = target: T1, Carbonic anhydrase 2; assay: Dissociation constant against human carbonic anhydrase II at 37 degree Centigrade

Structure (SMILES)	k on (Carbonic anhydrase 2 [1])	k off (Carbonic anhydrase 2 [2])	Kd (Carbonic anhydrase 2 [3])
NS(=O)(=O)c1ccc(C(=O)NCC(=O)NCC(=O)NCC(=O)N[C@@H](Cc2ccc(Cl)cc2)C(=O)O)cc1 ({Benzoyl(4-SO2NH2)}-GGG[Phe(4-Cl)]-OH)	850000 M⁻¹ s⁻¹	0.084 s⁻¹	96 nM and 99 nM
NS(=O)(=O)c1ccc(C(=O)NCC(=O)NCC(=O)NCC(=O)N[C@@H](CCC(=O)O)C(=O)O)cc1	–	–	371 nM
NS(=O)(=O)c1ccc(C(=O)NCC(=O)NCC(=O)O)cc1	–	–	290 nM
NS(=O)(=O)c1ccc(C(=O)NCC(=O)NC(CO)C(=O)O)cc1 (centres undefined)	–	–	280 nM
CC[C@H](C)[C@H](NC(=O)CNC(=O)CNC(=O)CNC(=O)c1ccc(S(N)(=O)=O)cc1)C(=O)O	–	–	230 nM
CC[C@H](C)[C@H](NC(=O)CNC(=O)CNC(=O)c1ccc(S(N)(=O)=O)cc1)C(=O)O	–	–	230 nM
CC(C)(C)[C@H](NC(=O)CNC(=O)CNC(=O)c1ccc(S(N)(=O)=O)cc1)C(=O)O	–	–	240 nM
NS(=O)(=O)c1ccc(C(=O)NCC(=O)NCC(=O)NCC(=O)O)cc1	–	–	230 nM
NS(=O)(=O)c1ccc(C(=O)NC(CCC(=O)O)C(=O)O)cc1 (centres undefined)	–	–	530 nM
N=C(N)NCCC[C@H](NC(=O)CNC(=O)CNC(=O)c1ccc(S(N)(=O)=O)cc1)C(=O)O	–	–	300 nM
NC(=O)CC[C@H](NC(=O)CNC(=O)CNC(=O)c1ccc(S(N)(=O)=O)cc1)C(=O)O	–	–	270 nM
NC(=O)CCC(NC(=O)CNC(=O)c1ccc(S(N)(=O)=O)cc1)C(=O)O (centres undefined)	–	–	240 nM
NC(=O)C[C@H](NC(=O)CNC(=O)CNC(=O)c1ccc(S(N)(=O)=O)cc1)C(=O)O	–	–	270 nM
Nc1ccc(CC(NC(=O)CNC(=O)c2ccc(S(N)(=O)=O)cc2)C(=O)O)cc1 (centres undefined)	–	–	330 nM
CSCC[C@@H](NC(=O)CNC(=O)CNC(=O)CNC(=O)c1ccc(S(N)(=O)=O)cc1)C(=O)O	–	–	220 nM
NS(=O)(=O)c1ccc(C(=O)NCC(=O)NC(Cc2ccc3ccccc3c2)C(=O)O)cc1 (centres undefined)	–	–	130 nM
NS(=O)(=O)c1ccc(C(=O)NCC(=O)NCC(=O)N[C@@H](CC(=O)O)C(=O)O)cc1	–	–	400 nM
NC(=O)C[C@H](NC(=O)CNC(=O)CNC(=O)CNC(=O)c1ccc(S(N)(=O)=O)cc1)C(=O)O	–	–	290 nM
NS(=O)(=O)c1ccc(C(=O)NCC(=O)N2CCCC2C(=O)O)cc1 (centres undefined)	–	–	250 nM
CCCC[C@H](NC(=O)CNC(=O)CNC(=O)CNC(=O)c1ccc(S(N)(=O)=O)cc1)C(=O)O ({Benzoyl(4-SO2NH2)}-GGG[Nle]-OH)	420000 M⁻¹ s⁻¹	0.093 s⁻¹	190 nM and 220 nM
NS(=O)(=O)c1ccc(C(=O)NCC(=O)NCC(=O)NCC(=O)N[C@@H](CO)C(=O)O)cc1	–	–	360 nM
NS(=O)(=O)c1ccc(C(=O)NCC(=O)NCC(=O)N[C@@H](CO)C(=O)O)cc1	–	–	290 nM
NS(=O)(=O)c1ccc(C(=O)NC(Cc2ccc(Cl)cc2)C(=O)O)cc1 (centres undefined)	–	0.022 s⁻¹	15 nM and 14 nM
NS(=O)(=O)c1ccc(C(=O)N2CCCC2C(=O)O)cc1 (centres undefined)	–	–	230 nM

Structure (SMILES)	k on (Carbonic anhydrase 2 [1])	k off (Carbonic anhydrase 2 [2])	Kd (Carbonic anhydrase 2 [3])
NS(=O)(=O)c1ccc(C(=O)NCC(=O)NCC(=O)NCC(=O)N2CCC[C@H]2C(=O)O)cc1	–	–	330 nM
C[C@H](NC(=O)CNC(=O)CNC(=O)c1ccc(S(N)(=O)=O)cc1)C(=O)O	–	–	250 nM
NS(=O)(=O)c1ccc(C(=O)NC(Cc2ccc3ccccc3c2)C(=O)O)cc1 (centres undefined)	–	–	17 nM
CC(O)C(NC(=O)CNC(=O)c1ccc(S(N)(=O)=O)cc1)C(=O)O (centres undefined)	–	–	320 nM
CC(C)[C@H](NC(=O)CNC(=O)CNC(=O)c1ccc(S(N)(=O)=O)cc1)C(=O)O	–	–	260 nM
N=C(N)NCCC[C@H](NC(=O)CNC(=O)CNC(=O)CNC(=O)c1ccc(S(N)(=O)=O)cc1)C(=O)O	–	–	290 nM
NS(=O)(=O)c1ccc(C(=O)NCC(=O)NCC(=O)N[C@@H](Cc2ccc(Cl)cc2)C(=O)O)cc1	–	–	94 nM
NC(=O)CC(NC(=O)c1ccc(S(N)(=O)=O)cc1)C(=O)O (centres undefined)	–	–	380 nM
NC(=O)CC(NC(=O)CNC(=O)c1ccc(S(N)(=O)=O)cc1)C(=O)O (centres undefined)	–	–	290 nM
NS(=O)(=O)c1ccc(C(=O)NCC(=O)NCC(=O)N2CCC[C@H]2C(=O)O)cc1	–	–	340 nM
NS(=O)(=O)c1ccc(C(=O)NC(CO)C(=O)O)cc1 (centres undefined)	–	–	240 nM
NS(=O)(=O)c1ccc(C(=O)NCC(=O)NCC(=O)NCC(=O)NCC(=O)O)cc1 ({Benzoyl(4-SO2NH2)}-GGGG-OH)	250000 M⁻¹ s⁻¹	0.09 s⁻¹	390 nM and 360 nM
CC(C)[C@H](NC(=O)CNC(=O)CNC(=O)CNC(=O)c1ccc(S(N)(=O)=O)cc1)C(=O)O	–	–	290 nM
C[C@@H](O)[C@H](NC(=O)CNC(=O)CNC(=O)CNC(=O)c1ccc(S(N)(=O)=O)cc1)C(=O)O	–	–	330 nM
NS(=O)(=O)c1ccc(C(=O)NCC(=O)NC(CC(=O)O)C(=O)O)cc1 (centres undefined)	–	–	420 nM
NC(=O)CC[C@H](NC(=O)CNC(=O)CNC(=O)CNC(=O)c1ccc(S(N)(=O)=O)cc1)C(=O)O	–	–	280 nM
NS(=O)(=O)c1ccc(C(=O)NCC(=O)NCC(=O)NC(Cc2ccc3ccccc3c2)C(=O)O)cc1 (centres undefined)	–	–	160 nM
NS(=O)(=O)c1ccc(C(=O)NC(CC(=O)O)C(=O)O)cc1 (centres undefined)	–	–	1100 nM
C[C@H](NC(=O)CNC(=O)CNC(=O)CNC(=O)c1ccc(S(N)(=O)=O)cc1)C(=O)O	–	–	300 nM
C[C@@H](O)[C@H](NC(=O)CNC(=O)CNC(=O)c1ccc(S(N)(=O)=O)cc1)C(=O)O	–	–	330 nM
NS(=O)(=O)c1ccc(C(=O)NCC(=O)NC(CCC(=O)O)C(=O)O)cc1 (centres undefined)	–	–	500 nM
NS(=O)(=O)c1ccc(C(=O)NCC(=O)NCC(=O)NCC(=O)N[C@@H](CC(=O)O)C(=O)O)cc1	–	–	300 nM
NS(=O)(=O)c1ccc(C(=O)NCC(=O)NCC(=O)N[C@@H](CCC(=O)O)C(=O)O)cc1	–	–	372 nM
N=C(N)NCCCC(NC(=O)c1ccc(S(N)(=O)=O)cc1)C(=O)O (centres undefined)	–	–	220 nM

Other lines, results leading:

k on (Carbonic anhydrase 2 [1])	k off (Carbonic anhydrase 2 [2])	Kd (Carbonic anhydrase 2 [3])	Structure (SMILES)
–	–	140 nM	NS(=O)(=O)c1ccc(C(=O)NCC(=O)NCC(=O)NCC(=O)N[C@@H](Cc2ccc(F)cc2)C(=O)O)cc1
–	–	64 nM	Nc1ccc(CC(NC(=O)c2ccc(S(N)(=O)=O)cc2)C(=O)O)cc1 (centres undefined)
–	–	210 nM	CC(C)C[C@H](NC(=O)CNC(=O)CNC(=O)CNC(=O)c1ccc(S(N)(=O)=O)cc1)C(=O)O
–	–	140 nM	CC(C)C(NC(=O)CNC(=O)c1ccc(S(N)(=O)=O)cc1)C(=O)O (centres undefined)
–	–	140 nM	CCCCC(NC(=O)CNC(=O)c1ccc(S(N)(=O)=O)cc1)C(=O)O (centres undefined)
–	–	22 nM	NS(=O)(=O)c1ccc(C(=O)NC(Cc2ccc([N+](=O)[O-])cc2)C(=O)O)cc1 (centres undefined)
–	–	53 nM	CC(O)C(NC(=O)c1ccc(S(N)(=O)=O)cc1)C(=O)O (centres undefined)
–	–	170 nM	COc1ccc(C[C@H](NC(=O)CNC(=O)CNC(=O)CNC(=O)c2ccc(S(N)(=O)=O)cc2)C(=O)O)cc1
–	–	160 nM	NS(=O)(=O)c1ccc(C(=O)NCC(=O)NCC(=O)NCC(=O)N[C@@H](Cc2ccc3ccccc3c2)C(=O)O)cc1
–	–	17 nM	NS(=O)(=O)c1ccc(C(=O)NC(Cc2ccc(F)cc2)C(=O)O)cc1 (centres undefined)
–	–	190 nM	Nc1ccc(C[C@H](NC(=O)CNC(=O)CNC(=O)CNC(=O)c2ccc(S(N)(=O)=O)cc2)C(=O)O)cc1
–	–	190 nM	N=C(N)NCCCC(NC(=O)CNC(=O)c1ccc(S(N)(=O)=O)cc1)C(=O)O (centres undefined)
–	–	120 nM	CC(NC(=O)c1ccc(S(N)(=O)=O)cc1)C(=O)O (centres undefined)
–	–	27 nM	COc1ccc(CC(NC(=O)c2ccc(S(N)(=O)=O)cc2)C(=O)O)cc1 (centres undefined)
–	–	140 nM	NS(=O)(=O)c1ccc(C(=O)NCC(=O)NCC(=O)N[C@@H](Cc2ccccc2)C(=O)O)cc1
–	–	160 nM	NS(=O)(=O)c1ccc(C(=O)NCC(=O)NCC(=O)NCC(=O)N[C@@H](Cc2ccc([N+](=O)[O-])cc2)C(=O)O)cc1
–	–	210 nM	CC(C)(C)[C@H](NC(=O)CNC(=O)CNC(=O)CNC(=O)c1ccc(S(N)(=O)=O)cc1)C(=O)O
–	–	170 nM	COc1ccc(C[C@H](NC(=O)CNC(=O)CNC(=O)c2ccc(S(N)(=O)=O)cc2)C(=O)O)cc1
–	–	140 nM	NC(=O)CCC(NC(=O)c1ccc(S(N)(=O)=O)cc1)C(=O)O (centres undefined)
–	–	160 nM	CSCCC(NC(=O)CNC(=O)c1ccc(S(N)(=O)=O)cc1)C(=O)O (centres undefined)
–	–	150 nM	NS(=O)(=O)c1ccc(C(=O)NCC(=O)NC(Cc2ccc([N+](=O)[O-])cc2)C(=O)O)cc1 (centres undefined)
–	–	140 nM	NS(=O)(=O)c1ccc(C(=O)NCC(=O)NC(Cc2ccccc2)C(=O)O)cc1 (centres undefined)

k on (Carbonic anhydrase 2 [1])	k off (Carbonic anhydrase 2 [2])	Kd (Carbonic anhydrase 2 [3])	Structure (SMILES)
–	–	130 nM	CC(C)CC(NC(=O)CNC(=O)c1ccc(S(N)(=O)=O)cc1)C(=O)O (centres undefined)
–	–	10 nM	CSCCC(NC(=O)c1ccc(S(N)(=O)=O)cc1)C(=O)O (centres undefined)
–	–	15 nM	CC(C)C(NC(=O)c1ccc(S(N)(=O)=O)cc1)C(=O)O (centres undefined)
–	–	9 nM	CC(C)CC(NC(=O)c1ccc(S(N)(=O)=O)cc1)C(=O)O (centres undefined)
–	–	130 nM	NS(=O)(=O)c1ccc(C(=O)NCC(=O)NCC(=O)N[C@@H](Cc2ccc([N+](=O)[O-])cc2)C(=O)O)cc1
–	–	160 nM	CSCC[C@@H](NC(=O)CNC(=O)CNC(=O)c1ccc(S(N)(=O)=O)cc1)C(=O)O
–	–	13 nM	NS(=O)(=O)c1ccc(C(=O)NC(Cc2ccccc2)C(=O)O)cc1 (centres undefined)
–	–	210 nM	CC(C)C[C@H](NC(=O)CNC(=O)CNC(=O)c1ccc(S(N)(=O)=O)cc1)C(=O)O
–	–	130 nM	NS(=O)(=O)c1ccc(C(=O)NCC(=O)NC(Cc2ccc(F)cc2)C(=O)O)cc1 (centres undefined)
–	–	170 nM	C[C@H](NC(=O)CNC(=O)c1ccc(S(N)(=O)=O)cc1)C(=O)O
–	–	200 nM	NS(=O)(=O)c1ccc(C(=O)NCC(=O)NCC(=O)NCC(=O)N[C@@H](Cc2ccccc2)C(=O)O)cc1
–	–	150 nM	CC(C)(C)C(NC(=O)CNC(=O)c1ccc(S(N)(=O)=O)cc1)C(=O)O (centres undefined)
–	–	100 nM	NS(=O)(=O)c1ccc(C(=O)NCC(=O)NC(Cc2ccc(Cl)cc2)C(=O)O)cc1 (centres undefined)
–	–	120 nM	NS(=O)(=O)c1ccc(C(=O)NCC(=O)NCC(=O)N[C@@H](Cc2ccc(F)cc2)C(=O)O)cc1
–	–	9 nM	CCC(C)C(NC(=O)c1ccc(S(N)(=O)=O)cc1)C(=O)O (centres undefined)
–	–	210 nM	Nc1ccc(C[C@H](NC(=O)CNC(=O)CNC(=O)c2ccc(S(N)(=O)=O)cc2)C(=O)O)cc1
–	–	9 nM	CC(C)(C)C(NC(=O)c1ccc(S(N)(=O)=O)cc1)C(=O)O (centres undefined)
–	0.011 s⁻¹	5 nM	CCCCC(NC(=O)c1ccc(S(N)(=O)=O)cc1)C(=O)O (centres undefined)
–	–	170 nM	COc1ccc(CC(NC(=O)CNC(=O)c2ccc(S(N)(=O)=O)cc2)C(=O)O)cc1 (centres undefined)
–	–	140 nM	CCCC[C@H](NC(=O)CNC(=O)CNC(=O)c1ccc(S(N)(=O)=O)cc1)C(=O)O
–	–	160 nM	CCC(C)C(NC(=O)CNC(=O)c1ccc(S(N)(=O)=O)cc1)C(=O)O (centres undefined)
